The source of these data is ChEMBL document CHEMBL1140554, “2-Aryl-3,3,3-trifluoro-2-hydroxypropionic acids: a new class of protein tyrosine phosphatase 1B inhibitors” (Bioorg Med Chem Lett, 2007).

Assay [1] addresses T1, Tyrosine-protein phosphatase non-receptor type 1 (Homo sapiens, UniProt P18031).
T1 sequence (P18031 whole entry): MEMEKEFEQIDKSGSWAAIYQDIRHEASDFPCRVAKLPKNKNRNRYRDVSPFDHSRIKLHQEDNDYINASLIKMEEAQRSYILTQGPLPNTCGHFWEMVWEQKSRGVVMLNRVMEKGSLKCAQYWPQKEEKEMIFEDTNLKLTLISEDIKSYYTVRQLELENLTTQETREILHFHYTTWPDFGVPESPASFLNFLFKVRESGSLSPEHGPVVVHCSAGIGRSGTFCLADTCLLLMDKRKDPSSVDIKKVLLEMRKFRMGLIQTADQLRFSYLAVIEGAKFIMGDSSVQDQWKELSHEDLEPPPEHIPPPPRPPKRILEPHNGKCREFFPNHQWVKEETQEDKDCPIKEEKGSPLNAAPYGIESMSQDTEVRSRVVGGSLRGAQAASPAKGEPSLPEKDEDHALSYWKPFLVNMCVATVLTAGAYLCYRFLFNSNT
Briefly: Inhibition of PTP1B expressed in Sf9 cells.

The target of assay [2] is T1, Tyrosine-protein phosphatase non-receptor type 1. The assay is described as follows: Inhibition of PTP1B in a cell-free assay.
For assay [3], the target named is T2, Tyrosine-protein phosphatase non-receptor type 1 (Homo sapiens) (UniProt P18031).
T2 sequence (whole entry): T1 sequence (P18031 whole entry)
The assay is described as follows: Inhibition of PTP1B expressed in Sf9 cells at 400 uM.

Calls of active or inactive are those of the source. The calls are words filed in the database; no cut-off is given here.

In general, IC50 refers to the point on the concentration scale where inhibition reaches its midpoint. Consider `Cc1nc(-c2ccc(Cl)cc2)sc1CCOc1cc(C(O)(C(=O)O)C(F)(F)F)ccc1O` (stereo not given), for which the IC50 in assay [1] was 105 µM.

Consider `COC(=O)c1c(O)cccc1OC/C=C/c1ccc(F)c(-c2cc(C(=O)O)no2)c1`, for which the IC50 in assay [1] turned out to be 110 µM. This IC50 and that of the compound before are within 1.5-fold of each other.

Take `Cc1nc(-c2ccc(Cl)cc2)sc1CCOc1cccc(C(O)(C(=O)O)C(F)(F)F)c1` (stereo not given): inhibition in assay [1] was half-maximal at 37 µM (IC50).

`Cc1nc(-c2ccc(Cl)cc2)sc1CCOc1cc(C(O)(C(=O)O)C(F)(F)F)ccc1OCCc1ccccc1` (stereo not given) yielded an IC50 in assay [1] of 10 µM.

Take `COCn1cc(C(O)(C(=O)O)C(F)(F)F)c2ccc(OCc3ccccc3)cc21` (stereo not given): in assay [1], the 50% inhibitory concentration (IC50) came to 382 µM.

Regarding `Cc1nc(-c2ccc(Cl)cc2)sc1CCOc1cc(C(O)(C(=O)O)C(F)(F)F)ccc1OCc1ccccc1` (stereo not given), the half-inhibitory concentration (IC50) in assay [1] came to 3.2 µM; in assay [2], 3 µM.

With `COCn1cc(C(O)(C(=O)O)C(F)(F)F)c2ccccc21` (stereo not given), the outcome in assay [3] was inactive.

For the compound `COCn1cc(C(O)(C(=O)O)C(F)(F)F)c2cc(OCc3ccccc3)ccc21` (stereo not given), in assay [3], the outcome was inactive.

In the case of `Cc1nc(-c2ccc(Cl)cc2)sc1CCOc1cc(C(O)(C(=O)O)C(F)(F)F)ccc1OCc1ccncc1` (stereo not given), it took 36 µM to reach half-maximal inhibition in assay [1] (IC50). That is a double-digit micromolar value.

For `Cc1nc(-c2ccc(Cl)cc2)sc1CCOc1cc(C(O)(C(=O)O)C(F)(F)F)ccc1OCC(=O)O` (stereo not given), the IC50 in assay [1] was determined as 500 µM. This IC50 lies about 14-fold higher than the previous one.

In turn, `CCCCCOc1ccc(C(O)(C(=O)O)C(F)(F)F)cc1OCCc1sc(-c2ccc(Cl)cc2)nc1C` (stereo not given) registered an IC50 in assay [1] of 12 µM.

For the compound `Cc1nc(-c2ccc(Cl)cc2)sc1CCOc1ccc2c(c1)c(C(O)(C(=O)O)C(F)(F)F)cn2COCC[Si](C)(C)C` (stereo not given), in assay [1], it took 32 µM to reach half-maximal inhibition (IC50).

For the compound `COCn1cc(C(O)(C(=O)O)C(F)(F)F)c2cccc(OCc3ccccc3)c21` (stereo not given), the IC50 in assay [1] was determined as 176 µM. Compared with the last compound, the IC50 is about 5.5-fold higher.

Compound `COCn1cc(C(O)(C(=O)O)C(F)(F)F)c2cc(OCCc3sc(-c4ccc(Cl)cc4)nc3C)ccc21` (stereo not given) gave a half-maximal inhibitory concentration (IC50) in assay [1] of 59 µM.

For the compound `O=C(c1ccccc1)C(c1ccccc1)c1ccc(C(F)(F)P(=O)(O)O)cc1` (stereo not given), in assay [1], the IC50 came out at 1.2 µM.

On to `Cc1nc(-c2ccc(Cl)cc2)sc1CCOc1cc(C(O)(C(=O)O)C(F)(F)F)ccc1OCc1ccc(F)cc1` (stereo not given), for which the half-inhibitory concentration (IC50) in assay [1] came to 23 µM.

For the compound `Cc1nc(-c2ccc(Cl)cc2)sc1CCOc1ccc2c(c1)c(C(O)(C(=O)O)C(F)(F)F)cn2Cc1ccccc1` (stereo not given), the midpoint of inhibition in assay [1], the IC50, lay at 27 µM.

In assay [1], `COc1ccc(COc2ccc(C(O)(C(=O)O)C(F)(F)F)cc2OCCc2sc(-c3ccc(Cl)cc3)nc2C)cc1` (stereo not given) displayed a half-maximal inhibitory concentration (IC50) of 12 µM.

On to `COC(=O)c1c(O)cccc1OCCOc1ccc2c(c1)c(C(O)(C(=O)O)C(F)(F)F)cn2COCC[Si](C)(C)C` (stereo not given), for which it took 123 µM to reach half-maximal inhibition in assay [1] (IC50).
